Literature values, collected in patent publication US20160184299A1, “COMBINATION COMPOSITION COMPRISING OXYCODONE AND ACETAMINOPHEN FOR RAPID ONSET AND EXTENDED DURATION OF ANALGESIA” (MALLINCKRODT LLC, priority 2011, published 2016).

System: hepatic GSH
Conditions: mice, cited from earlier work

## CC(=O)Nc1ccc(O)cc1 [acetaminophen]
100 mg/kg to 600 mg/kg
  Time to onset of circulating hepatic GSH changes after administration: ≤ 15 min
All dose groups
  Time of minimum GSH level after injection: 2 h
